In ChEMBL document CHEMBL3638939, “Tetrahydroisoquinolines, pharmaceutical compositions containing them, and their use in therapy” (2014):

Key:
[1] = molecular target: T1, Sodium- and chloride-dependent glycine transporter 1 (Homo sapiens, UniProt P48067); test: Radioligand Binding Assay: Radioligand binding to human GlyT1c transporter-expressing membranes was carried out as described in Mezler et al., Molecular Pharmacology 74:1705-1715, 2008.More specifically, [3H]-(R)-NPTS radioligand binding to human GlyT1c transporter-expressing membranes was measured in duplicate in a total volume of 200 ul in 96-well plates. To 100 ul of membrane suspension (yielding a final membrane protein concentration of 50 ug/ml) in assay buffer (120 mM NaCl, 2 mM KCl, 10 mM Hepes, 1 mM MgCl2, 1 mM CaCl2, pH 7.5) 80 ul of [3H]-(R)-NPTS (0.5 nM final) were added in assay buffer. For competition experiments 10 ul of buffer or unlabeled compound solution obtained from dilution series of test compounds in DMSO followed. An intermediate 1:10 dilution in assay buffer yielded a final DMSO concentration of 1%. Non-specific binding was determined in the presence of 10 uM Org24598 (or its racemate Org24461) for [3H]-(R)-NPTS.
T1 sequence (P48067 whole entry): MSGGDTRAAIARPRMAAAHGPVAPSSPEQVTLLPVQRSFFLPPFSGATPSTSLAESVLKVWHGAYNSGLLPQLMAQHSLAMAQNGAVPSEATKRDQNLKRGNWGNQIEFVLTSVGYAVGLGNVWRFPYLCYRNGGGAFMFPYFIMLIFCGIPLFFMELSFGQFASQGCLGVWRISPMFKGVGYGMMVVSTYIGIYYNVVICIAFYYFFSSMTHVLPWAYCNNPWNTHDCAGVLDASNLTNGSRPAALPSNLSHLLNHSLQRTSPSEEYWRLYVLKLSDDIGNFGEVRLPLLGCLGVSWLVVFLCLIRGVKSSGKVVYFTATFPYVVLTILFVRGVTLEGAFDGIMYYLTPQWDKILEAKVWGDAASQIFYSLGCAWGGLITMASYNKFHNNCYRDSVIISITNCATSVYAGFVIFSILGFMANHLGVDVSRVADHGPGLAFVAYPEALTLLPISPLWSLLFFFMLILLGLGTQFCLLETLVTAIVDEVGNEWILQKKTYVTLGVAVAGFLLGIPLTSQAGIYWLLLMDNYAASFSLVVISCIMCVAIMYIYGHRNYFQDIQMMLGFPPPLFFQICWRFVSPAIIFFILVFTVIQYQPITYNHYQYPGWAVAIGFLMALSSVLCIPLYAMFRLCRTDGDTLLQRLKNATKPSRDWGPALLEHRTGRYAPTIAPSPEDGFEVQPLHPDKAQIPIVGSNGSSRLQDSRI

[2] = molecular target: T1, Sodium- and chloride-dependent glycine transporter 1; test: Glycine Uptake Assay: [3H]-Glycine uptake into recombinant CHO cells expressing human GlyT1: Human GlyT1c expressing recombinant hGlyT1c_5_CHO cells were plated at 20,000 cells per well in 96 well Cytostar-T scintillation microplates (Amersham Biosciences) and cultured to sub-confluency for 24 h. For glycine uptake assays the culture medium was aspirated and the cells were washed once with 100 ul HBSS (Gibco BRL, #14025-050) with 5 mM L-Alanine (Merck #1007). 80 ul HBSS buffer were added, followed by 10 ul inhibitor or vehicle (10% DMSO) and 10 ul [3H]-glycine (TRK71, Amersham Biosciences) to a final concentration of 200 nM for initiation of glycine uptake. The plates were placed in a Wallac Microbeta (PerkinElmer) and continuously counted by solid phase scintillation spectrometry during up to 3 hours. Nonspecific uptake was determined in the presence of 10 uM Org2 4598. IC50 calculations were made by four-parametric logistic nonlinear regressi on analysis (GraphPad Prism).; format: cell-based

Ki [1] | IC50 [2] | Structure (SMILES)
< 10 µM | – | Cc1oncc1S(=O)(=O)NCCOc1ccc2c(c1)C(C1(c3ccc(Cl)cc3)CCC1)NCC2 (stereo not given)
< 0.1 µM | < 0.1 µM | CCCS(=O)(=O)NCCOc1ccc2c(c1)C(C1(c3cccc(F)c3)CCC1)NCC2 (stereo not given)
< 10 µM | < 100 µM | O=C1c2ccccc2C(=O)N1CCS(=O)(=O)NCCOc1ccc2c(c1)C(C1(c3ccc(Cl)cc3)CCC1)NCC2 (stereo not given)
